Results published in article PMC4906958 (Journal of the American Chemical Society, 2016).

Assays:
[1] = biological target: T1, MelB of E. coli (MelBEc) (Escherichia coli, UniProt P02921); assay: Trp to D2G FRET, reversed by melibiose, in detergent extract; format: cell-based
[2] = biological target: LeuT (leucine transporter) (Aquifex aeolicus, UniProt O67854); assay: radioligand binding by scintillation proximity assay
[3] = biological target: T1, MelB of E. coli (MelBEc); assay: melibiose reversal of Trp to D2G FRET in detergent extract; format: cell-based

T1 sequence (P02921 2-473): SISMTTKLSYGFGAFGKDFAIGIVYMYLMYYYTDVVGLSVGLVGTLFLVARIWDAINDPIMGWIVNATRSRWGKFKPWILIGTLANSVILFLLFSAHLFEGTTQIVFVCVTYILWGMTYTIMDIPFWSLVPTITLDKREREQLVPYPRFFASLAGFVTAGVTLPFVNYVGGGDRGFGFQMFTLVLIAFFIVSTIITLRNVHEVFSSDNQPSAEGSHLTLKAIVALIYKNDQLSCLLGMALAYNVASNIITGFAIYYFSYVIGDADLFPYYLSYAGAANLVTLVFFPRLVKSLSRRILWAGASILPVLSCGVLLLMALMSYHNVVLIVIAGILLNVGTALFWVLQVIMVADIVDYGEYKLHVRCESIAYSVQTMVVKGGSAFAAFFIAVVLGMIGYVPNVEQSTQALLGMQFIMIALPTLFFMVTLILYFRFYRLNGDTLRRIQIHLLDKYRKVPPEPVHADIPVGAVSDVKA

With `CN(C)c1cccc2c(S(=O)(=O)NCCS[C@@H]3O[C@H](CO)[C@H](O)[C@H](O)[C@H]3O)cccc12` [D2G, dansyl-2-galactoside] the “Trp to D2G FRET, reversed by melibiose, in detergent extract” value [1] was “Melibiose reversal of Trp to dansyl-2-galactoside (D^2G) FRET”.
`CC(C)C[C@H](N)C(=O)O` [leucine] was tested, and the “radioligand binding by scintillation proximity assay (SPA)” value [2] was “measuring the ability to bind a radio-labelled ligand ([^3H]-leucine) via scintillation proximity assay (SPA)”.
With `OC[C@H]1O[C@H](OC[C@H]2OC(O)[C@H](O)[C@@H](O)[C@@H]2O)[C@H](O)[C@@H](O)[C@H]1O` (stereo partly drawn) [melibiose] the “melibiose reversal of Trp to D2G FRET in detergent extract” value [3] was “MelBEc in PSE-C11 maintained the melibiose binding, which is similar to that observed for the protein in MNG-3”.
